Data reported in patent publication US20080286349A1, “SYSTEMS, DEVICES, AND METHODS FOR PASSIVE TRANSDERMAL DELIVERY OF ACTIVE AGENTS TO A BIOLOGICAL INTERFACE” (priority 2007, published 2008).
Structures can show the parent of a compound that is named as a salt. Each block holds one molecule with its values, some of them ahead of it.

Columns and labels:
[1] = Membrane potential measurement across skin in H-shaped Franz cell; ion mobility relative to chloride; format: physicochemical, mouse; settings: Cl− = 1
From the text: The electric potential difference shown here is between the outside and the inside of the skin. The “+/−” notation is opposite to that shown in Equation 12. […] These values have been used to make calculations.

[2] = Computed membrane potential and ion flux (Eq. 11 Goldman equation, Eq. 12); settings: relative to Cl−
From the text: Further, it is necessary to linearly approximate the concentration gradient or the electric potential gradient to solve equation 9. […] The potential difference across the skin has been considered for a single component system. […] Thus, a film potential can be calculated provided that the ion mobility (omega) and concentration (c) within the skin are known. The ion transport speed can then be found from the calculated film potential.

[3] = Delivery of aqueous drug solutions through skin in Franz cell (amount over time, flux); settings: for experimental Flux J: 1.0% Diclofenac
From the text: An H-shaped Franz cell (FIG. 7) was used to evaluate the theory described herein. As shown, the Franz cell 28 includes a donor chamber 30a and a receiver chamber 30b. The donor chamber 30a contains an ionic active agent, which permeates through a membrane 32 to reach the receiver chamber 30b. A working electrode 34a was inserted in the donor chamber 30a, while a counter electrode 34b (i.e., reference electrode) was inserted in the receptor chamber 30b. It is possible to measure the electrical potential difference induced by the ionic diffusion/permeation and the concentration gradient thus established. […]

[4] = Example 1: Procaterol HCl solutions, Franz cell at 32° C.; format: in vitro ADME, mouse; set-up: unit not given here
Method: Typically, 17 ml of phosphate buffered saline (PBS, sold by Wako Pure Chemical Industries) was injected into the receptor cell, and a 10 mm stirring bar was used to agitate the solution during the test. The Franz cell was placed in an incubator (made by ESPEC, model LH-113) with the temperature set to 32° C. and the humidity set to 70%. Samples were typically extracted from the cell at predetermined times using a 200 μl Gilson Pipetman. 200 μl of PBS was then added to the cell after each sampling operation.
For measuring the active agent (e.g., Procaterol cation) permeated, a standard solution with known concentration can be prepared and compared with the concentration measured. Using Procaterol HCl as an example, 50 mg of Procaterol HCl (97.25% anhydrous) was accurately measured out, and then added to water to form 50 ml of solution (“Procaterol concentrate liquid”). The standard concentrate was then diluted (“Procaterol standard solution”) and used as a mobile phase for high performance (or pressure) liquid chromatography (HPLC). The Procaterol concentrate liquid was sealed in a light shielding bottle and stored in a refrigerator. 10 μl of each test sample and 10 μl of the standard solution was measured using HPLC, and Procaterol peak areas At (test samples) and As (standard solution) were determined for each sample. Procaterol HCl masses were then found for each test sample using the following equation: […]
In Example 1, before testing the delivery device 10, sixteen tests were performed at four different agent concentrations (four tests (#1, #2, #3, and #4) for each concentration of active agent) using Procaterol HCl in order to investigate the transport of Procaterol cation into and through skin along a concentration gradient. A Franz cell was used at 32° C. using hairless mouse skin as a permeable membrane. 720 corresponds to the average delivery of a 5 wt % Procaterol-HCl concentration, 722 corresponds to the average delivery of a 2.5 wt % Procaterol-HCl concentration, 724 corresponds to the average delivery of a 1 wt % Procaterol-HCl concentration, and 726 corresponds to the average delivery of a 0.5 wt % Procaterol-HCl concentration. […] It can be seen that the amount of Procaterol delivered through the skin increases over time. Further, it can also be seen that the amount of Procaterol delivered increases with increased Procaterol concentration. To deliver a medically effective amount of Procaterol through the skin, the concentration of the Procaterol solution must be equal to or greater than a certain threshold concentration. A sufficient amount of Procaterol dissolved in water was used in this experiment, thus leading to a rather large Procaterol delivery speed. It is therefore possible to deliver Procaterol through the skin, provided that the solution exists in proximity to the surface of the skin.

Structure (SMILES): O=C1O[C@H]([C@@H](O)CO)C(O)=C1O[C@H]1O[C@H](CO)[C@@H](O)[C@H](O)[C@H]1O [AA2G, L-Ascorbic acid 2-Glucoside]
- Mobility of ion (AA2G− compared to chloride ions) ([1]; AA2G 300 mM (0.296 mol dm^−3 donor)): 0.83
- Mobility ratio w ([2]; AA2G 0.000059 mol cm^3): 0.1
- Mobility ratio w ([2]; AA2G 0.000148 mol cm^3): 0.4

Structure (SMILES): O=C([O-])Cc1ccccc1Nc1c(Cl)cccc1Cl.[Na+] [Diclofenac, monosodium 2-(2-(2,6-dichlorophenylamino)phenyl)acetate]
- Mobility of ion (Diclofenac anion compared to chloride ions) ([1]; 0.032 mol dm^−3 sodium Diclofenac donor): 4.6
- Flux ([3]; 0.003 M sodium Diclofenac): 1.30 μg h^−1 cm^−2
- Amount of Diclofenac delivered ([3]; 0.003 M, time 0 hr): 0.0
- Amount of Diclofenac delivered ([3]; 0.003 M, time 1 hr): 0.0
- Amount of Diclofenac delivered ([3]; 0.003 M, time 3 hr): 2.0
- Amount of Diclofenac delivered ([3]; 0.003 M, time 5 hr): 5.6
- Amount of Diclofenac delivered ([3]; 0.003 M, time 24 hr): 31.1
- Flux ([3]; 0.016 M sodium Diclofenac): 2.21 μg h^−1 cm^−2
- Amount of Diclofenac delivered ([3]; 0.016 M, time 0 hr): 0.0
- Amount of Diclofenac delivered ([3]; 0.016 M, time 1 hr): 0.0
- Amount of Diclofenac delivered ([3]; 0.016 M, time 3 hr): 3.6
- Amount of Diclofenac delivered ([3]; 0.016 M, time 5 hr): 9.8
- Amount of Diclofenac delivered ([3]; 0.016 M, time 24 hr): 53.1
- Flux ([3]; 0.031 M sodium Diclofenac): 4.62 μg h^−1 cm^−2
- Amount of Diclofenac delivered ([3]; 0.031 M, time 0 hr): 0.0
- Amount of Diclofenac delivered ([3]; 0.031 M, time 1 hr): 0.3
- Amount of Diclofenac delivered ([3]; 0.031 M, time 3 hr): 5.4
- Amount of Diclofenac delivered ([3]; 0.031 M, time 5 hr): 12.1
- Amount of Diclofenac delivered ([3]; 0.031 M, time 24 hr): 110.9
- experimental Flux J ([3]; KCl conc 0 %): 4.3 μg h^−1 cm^−2
- experimental Flux J ([3]; KCl conc 0.1 %): 6.2 μg h^−1 cm^−2
- experimental Flux J ([3]; KCl conc 0.5 %): 7.0 μg h^−1 cm^−2
- Mobility ratio w ([2]; Diclofenac 0.0000016 mol cm^−3): 4.6
- Mobility ratio w ([2]; Diclofenac 0.0000032 mol cm^−3 (last line)): 4.6
- Mobility ratio w ([2]; Diclofenac 0.0000032 mol cm^−3 (third line)): 4.6
- Mobility ratio w ([2]; Diclofenac 0.000016 mol cm^−3): 4.6

- Mobility of ion (Procaterol cation with respect to chloride ions) ([1]; […] Procaterol HCl donor): 0.13
- Flux ([3]; 0.015 M aqueous Procaterol): 0 mg h^−1 cm^−2
- Amount of aqueous Procaterol delivered ([3]; 0.015 M, time 0 hr): 0
- Amount of aqueous Procaterol delivered ([3]; 0.015 M, time 2 hr): 0
- Amount of aqueous Procaterol delivered ([3]; 0.015 M, time 3 hr): 0
- Amount of aqueous Procaterol delivered ([3]; 0.015 M, time 5 hr): 0
- Flux ([3]; 0.03 M aqueous Procaterol): 0.024 mg h^−1 cm^−2
- Amount of aqueous Procaterol delivered ([3]; 0.03 M, time 0 hr): 0
- Amount of aqueous Procaterol delivered ([3]; 0.03 M, time 2 hr): 0
- Amount of aqueous Procaterol delivered ([3]; 0.03 M, time 3 hr): 0
- Amount of aqueous Procaterol delivered ([3]; 0.03 M, time 5 hr): 0.12
- Flux ([3]; 0.06 M aqueous Procaterol): 0.082 mg h^−1 cm^−2
- Amount of aqueous Procaterol delivered ([3]; 0.06 M, time 0 hr): 0
- Amount of aqueous Procaterol delivered ([3]; 0.06 M, time 2 hr): 0.13
- Amount of aqueous Procaterol delivered ([3]; 0.06 M, time 3 hr): 0.22
- Amount of aqueous Procaterol delivered ([3]; 0.06 M, time 5 hr): 0.41
- Flux ([3]; […] aqueous Procaterol): 0.84 mg h^−1 cm^−2
- Amount of aqueous Procaterol delivered ([3]; […], time 0 hr): 0
- Amount of aqueous Procaterol delivered ([3]; […], time 2 hr): 1.53
- Amount of aqueous Procaterol delivered ([3]; […], time 3 hr): 2.47
- Amount of aqueous Procaterol delivered ([3]; […], time 5 hr): 4.20
- Mobility ratio w ([2]; Procaterol 0.000015 mol cm^−3): 0.13
- Mobility ratio w ([2]; Procaterol 0.00003 mol cm^−3): 0.13
- Mobility ratio w ([2]; Procaterol 0.00006 mol cm^−3): 0.13
- Total transmission amount, Ave. ([4]; Test ID 720 (5.0%), 0 hrs.): 0.0
- Total transmission amount, single samples #1-#4 ([4]; Test ID 720 (5.0%), 0 hrs.): 0.0
- Total transmission amount, Ave. ([4]; Test ID 720 (5.0%), 1 hr.): 0.7
- Total transmission amount, Ave. ([4]; Test ID 720 (5.0%), 3 hrs.): 5.3
- Total transmission amount, Ave. ([4]; Test ID 720 (5.0%), 5 hrs.): 10.4
- Total transmission amount, Ave. ([4]; Test ID 720 (5.0%), 8 hrs.): 16.3
- Total transmission amount, Ave. ([4]; Test ID 722 (2.5%), 0 hrs.): 0.0
- Total transmission amount, single samples #1-#4 ([4]; Test ID 722 (2.5%), 0 hrs.): 0.0
- Total transmission amount, Ave. ([4]; Test ID 722 (2.5%), 1 hr.): 0.4
- Total transmission amount, Ave. ([4]; Test ID 722 (2.5%), 3 hrs.): 1.7
- Total transmission amount, Ave. ([4]; Test ID 722 (2.5%), 5 hrs.): 2.8
- Total transmission amount, Ave. ([4]; Test ID 722 (2.5%), 8 hrs.): 4.1
- Total transmission amount, Ave. ([4]; Test ID 724 (1.0%), 0 hrs.): 0.0
- Total transmission amount, single samples #1-#4 ([4]; Test ID 724 (1.0%), 0 hrs.): 0.0
- Total transmission amount, Ave. ([4]; Test ID 724 (1.0%), 1 hr.): 0.0
- Total transmission amount, single samples #1-#4 ([4]; Test ID 724 (1.0%), 1 hr.): 0.0
- Total transmission amount, Ave. ([4]; Test ID 724 (1.0%), 3 hrs.): 0.2
- Total transmission amount, Ave. ([4]; Test ID 724 (1.0%), 5 hrs.): 0.4
- Total transmission amount, Ave. ([4]; Test ID 724 (1.0%), 8 hrs.): 0.7
- Total transmission amount, Ave. ([4]; Test ID 726 (0.5%), 0 hrs.): 0.0
- Total transmission amount, single samples #1-#4 ([4]; Test ID 726 (0.5%), 0 hrs.): 0.0
- Total transmission amount, Ave. ([4]; Test ID 726 (0.5%), 1 hr.): 0.0
- Total transmission amount, single samples #1-#4 ([4]; Test ID 726 (0.5%), 1 hr.): 0.0
- Total transmission amount, Ave. ([4]; Test ID 726 (0.5%), 3 hrs.): 0.2
- Total transmission amount, Ave. ([4]; Test ID 726 (0.5%), 5 hrs.): 0.5
- Total transmission amount, Ave. ([4]; Test ID 726 (0.5%), 8 hrs.): 0.8
Structure (SMILES): CCC(NC(C)C)C(O)c1ccc(O)c2[nH]c(=O)ccc12 (stereo not shown) [Procaterol HCl, 8-hydroxy-5-[1-hydroxy-2-[(1-methylethyl)amino]butyl]-2(1H)-quinolinone]
